Test results reported in patent publication US10399939B2, “Tetrahydronaphthalene estrogen receptor modulators and uses thereof” (Genentech, Inc., priority 2015, dated 2019).

Molecular target: ER-alpha (WT) (Homo sapiens (Human), UniProt P03372)
Assay: Breast Cancer Cell ERa High Content Fluorescence Imaging Degradation Assay (ER-alpha MCF7 HCS)
Type: cell-based
Conditions: for ER-alpha (WT) MCF7 HCS (S inf): plateau of the maximal effect (ERa degradation), DMSO and 5 nM Fulvestrant define 0% and 100% changes in ESR1; for degradation activities measured as ER-alpha MCF7 HCS Sinf (%) values (in words): MCF7 cells
Procedure: Example 901: Breast Cancer Cell ERa High Content Fluorescence Imaging Degradation Assay
MCF7 breast cancer cells were seeded on day 1 at a density of 10,000 cells per well in 384 well poly-lysine coated tissue culture plate (Greiner # T-3101-4), in 50 µL/well RPMI (phenol red free), 10% FBS (Charcoal stripped), containing L-glutamine. […] Compounds and controls were dispensed using a Labcyte Echo acoustic dispenser to dispense compounds with a pre-defined serial dilution (1.8×, 10 point, in duplicate) and appropriate backfill and control compounds (final total volume transferred was 417.5 nL and compound dispense volume ranges from 2.5 nL to 417.5 nL; 0.84% DMSO (v/v) final), ultimately producing a concentration range from 0.05 nM to 835 nM. Cell plates were incubated at 37° C., for 4 hours. Fixation and permeabilization were carried out using a Biotek EL406 plate washer and dispenser as follows. Cells were fixed by addition of 15 μL of 16% paraformaldehyde (Electron Microscopy Sciences #15710-S) directly to the 50 μL cell culture medium in each well using the peristaltic pump 5 μL cassette on a Biotek EL406 (final concentration of formaldehyde was 3.7% w/v). Samples were incubated 30 minutes. Well contents was aspirated and 50 μL/well of Phosphate Buffered Saline (PBS) containing 0.5% w/v bovine serum albumen, 0.5% v/v Triton X-100 (Antibody Dilution Buffer) was added to each well. Samples were incubated for 30 minutes. Well contents were aspirated and washed 3 times with 100 μL/well of PBS. Immunofluorescence staining of estrogen receptor alpha (ESR1) was carried out using a Biotek EL406 plate washer and dispenser as follows. The well supernatant was aspirated from the wells and 25 μL/well of anti-ESR1 mAb (F10) (Santa Cruz sc-8002) diluted 1:1000 in Antibody Dilution Buffer was dispensed. Samples were incubated for 2 hours at room temperature. Samples were washed 4 times with 100 μL/well of PBS. 25 μL (microliters)/well of secondary antibody solution (Alexafluor® 488 conjugate anti-mouse IgG (LifeTechnologies #A21202) diluted 1:1000 and Hoechst 33342 1 μg/ml diluted in Antibody Dilution Buffer) were dispensed into each well. Samples were incubated for 2 hours at room temperature. Samples were washed 3 times with 100 μL/well of PBS using a Biotek EL406. Quantitative fluorescence imaging of ESR1 was carried out using a Cellomics Arrayscan V® (Thermo). Fluorescence images of the samples (Channel 1: XF53 Hoechst (DNA stain); Channel 2: XF53 FITC (ESR1 stain)) were acquired using a Cellomics VTI Arrayscan using the Bioapplication “Compartmental Analysis” using the auto-exposure (based on DMSO control wells) setting “peak target percentile” set to 25% target saturation for both channels. Channel 1 (DNA stain) was used to define the nuclear region (Circ). Measurements of “Mean_CircAvgIntCh2”, which is the Alexafluor 488 fluorescence intensity (ESR1) within the nuclear region, was measured on a per cell basis and averaged over all the measured cells. Data analysis was carried out using Genedata Screener Software, with DMSO and 5 nM Fulvestrant treated samples being used to define the 0% and 100% changes in ESR1. The “Robust Fit” method was used to define the inflexion point of curve (EC50) and the plateau of the maximal effect (Sinf).

[1] = MCF7 breast cancer cells, 4 hours incubation, inflexion point of curve

Sequence of ER-alpha (WT) (P03372 whole entry): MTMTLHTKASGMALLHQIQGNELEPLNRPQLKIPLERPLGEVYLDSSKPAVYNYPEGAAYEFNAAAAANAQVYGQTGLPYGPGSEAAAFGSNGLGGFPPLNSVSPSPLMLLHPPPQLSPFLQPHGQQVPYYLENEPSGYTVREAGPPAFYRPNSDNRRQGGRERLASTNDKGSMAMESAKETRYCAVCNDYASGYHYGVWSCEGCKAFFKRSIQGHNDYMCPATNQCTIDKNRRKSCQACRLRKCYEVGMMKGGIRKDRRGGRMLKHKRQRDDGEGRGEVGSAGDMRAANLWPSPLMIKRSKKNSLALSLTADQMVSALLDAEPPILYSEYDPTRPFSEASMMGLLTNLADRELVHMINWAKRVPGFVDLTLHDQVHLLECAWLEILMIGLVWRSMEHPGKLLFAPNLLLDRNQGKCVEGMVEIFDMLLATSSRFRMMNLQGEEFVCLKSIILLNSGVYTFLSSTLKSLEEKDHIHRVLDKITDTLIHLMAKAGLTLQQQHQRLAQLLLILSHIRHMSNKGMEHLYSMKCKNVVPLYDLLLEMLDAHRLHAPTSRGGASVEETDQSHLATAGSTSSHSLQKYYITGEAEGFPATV

SMILES	EC50 [1]	ER-alpha (WT) MCF7 HCS (S inf) (MCF7 breast cancer cells)	degradation activities measured as ER-alpha MCF7 HCS Sinf (%) values (in words)	ER-alpha (WT) MCF7 HCS (EC50) [1]
CN1CC(CCOc2ccc([C@@H]3c4ccc(O)cc4CC[C@@H]3c3ccccc3)cc2)C1 (stereo in doubt) [A, (5R,6S)-5-(4-(2-(1-methylazetidin-3-yl)ethoxy)phenyl)-6-phenyl-5,6,7,8-tetrahydronaphthalen-2-ol, reference compound]	19 nM	−58%	low	–
CN1CC(CCOc2ccc([C@H]3c4ccc(O)cc4CC[C@H]3c3ccccc3)cc2)C1 (stereo in doubt) [B, (5S,6R)-5-(4-(2-(1-methylazetidin-3-yl)ethoxy)phenyl)-6-phenyl-5,6,7,8-tetrahydronaphthalen-2-ol, reference compound]	0.026 nM	−43.35%	low	–
Oc1ccc2c(c1)CC[C@H](c1ccccc1)[C@@H]2c1ccc(OCCN2CC(CF)C2)cc1 [Compound 101, (1R,2S)-1-[4-[2-[3-(fluoromethyl)azetidin-1-yl]ethoxy]phenyl]-2-phenyl-tetralin-6-ol]	0.371 nM	−100%	–	–
Oc1ccc2c(c1)CC[C@@H](c1ccccc1)[C@H]2c1ccc(OCCN2CC(CF)C2)cc1 [Compound 102, (1S,2R)-1-[4-[2-[3-(fluoromethyl)azetidin-1-yl]ethoxy]phenyl]-2-phenyl-tetralin-6-ol]	8.12 nM	−94.7%	–	–
Oc1ccc2c(c1)CC[C@@H](c1ccc(F)cc1)[C@H]2c1ccc(OCCN2CC(CF)C2)cc1 [Compound 103, (1S,2R)-1-[4-[2-[3-(fluoromethyl)azetidin-1-yl]ethoxy]phenyl]-2-(4-fluorophenyl)tetralin-6-ol]	38.6 nM	−78%	–	–
Oc1ccc2c(c1)CC[C@@H](c1ccccc1)[C@H]2c1c(F)cc(OCCN2CC(CF)C2)cc1F [Compound 104, (1R,2R)-1-[2,6-difluoro-4-[2-[3-(fluoromethyl)azetidin-1-yl]ethoxy]phenyl]-2-phenyl-tetralin-6-ol]	15.6 nM	−95%	–	–
Oc1ccc2c(c1)CC[C@H](c1ccccc1)[C@@H]2c1c(F)cc(OCCN2CC(CF)C2)cc1F [Compound 105, (1S,2S)-1-[2,6-difluoro-4-[2-[3-(fluoromethyl)azetidin-1-yl]ethoxy]phenyl]-2-phenyl-tetralin-6-ol]	0.0404 nM	−98.7%	–	–
Oc1ccc2c(c1)CC[C@H](c1ccc(F)cc1)[C@@H]2c1ccc(OCCN2CC(CF)C2)cc1 [Compound 106, (1R,2S)-1-[4-[2-[3-(fluoromethyl)azetidin-1-yl]ethoxy]phenyl]-2-(4-fluorophenyl)tetralin-6-ol]	0.977 nM	−97%	–	–
Oc1ccc2c(c1)CC[C@H](C1CCOCC1)[C@@H]2c1ccc(OCCN2CC(CF)C2)cc1 [Compound 107, (5R,6R)-5-(4-(2-(3-(fluoromethyl)azetidin-1-yl)ethoxy)phenyl)-6-(tetrahydro-2H-pyran-4-yl)-5,6,7,8-tetrahydronaphthalen-2-ol]	16.4 nM	−87.8%	–	–
Oc1ccc2c(c1)CC[C@@H](C1CCC(F)(F)CC1)[C@H]2c1ccc(OCCN2CC(CF)C2)cc1 [Compound 108, (5S,6S)-6-(4,4-difluorocyclohexyl)-5-(4-(2-(3-(fluoromethyl)azetidin-1-yl)ethoxy)phenyl)-5,6,7,8-tetrahydronaphthalen-2-ol]	14.6 nM	−97%	–	–
Oc1ccc2c(c1)CC[C@@H](C1CCOCC1)[C@H]2c1ccc(OCCN2CC(CF)C2)cc1 [Compound 109, (5S,6S)-5-(4-(2-(3-(fluoromethyl)azetidin-1-yl)ethoxy)phenyl)-6-(tetrahydro-2H-pyran-4-yl)-5,6,7,8-tetrahydronaphthalen-2-ol]	0.164 nM	−95.2%	–	–
Oc1ccc2c(c1)CC[C@H](C1CCC(F)(F)CC1)[C@@H]2c1ccc(OCCN2CC(CF)C2)cc1 [Compound 110, (5R,6R)-6-(4,4-difluorocyclohexyl)-5-(4-(2-(3-(fluoromethyl)azetidin-1-yl)ethoxy)phenyl)-5,6,7,8-tetrahydronaphthalen-2-ol]	0.177 nM	−98.2%	–	–
Oc1ccc2c(c1)CC[C@H](c1ccccc1)[C@@H]2c1ccc(OCCN2CCC(CF)C2)cc1 (stereo partly drawn) [Compound 111, (5R,6S)-5-(4-(2-(3-(fluoromethyl)pyrrolidin-1-yl)ethoxy)phenyl)-6-phenyl-5,6,7,8-tetrahydronaphthalen-2-ol]	47 nM	−55%	–	–
Oc1ccc2c(c1)CC[C@H](c1ccccc1)[C@@H]2c1ccc(OCCN2CC(CCl)C2)cc1 [Compound 112, (5R,6S)-5-(4-(2-(3-(chloromethyl)azetidin-1-yl)ethoxy)phenyl)-6-phenyl-5,6,7,8-tetrahydronaphthalen-2-ol]	50.9 nM	−35%	–	–
Oc1ccc2c(c1)CC[C@@H](c1ccccc1)[C@H]2c1ccc(OCCN2CC(CCl)C2)cc1 [Compound 113, (5S,6R)-5-(4-(2-(3-(chloromethyl)azetidin-1-yl)ethoxy)phenyl)-6-phenyl-5,6,7,8-tetrahydronaphthalen-2-ol]	0.177 nM	−93.6%	–	–
Oc1ccc2c(c1)CC[C@@H](c1ccccc1)[C@H]2c1ccc(OCCN2CCC(CF)C2)cc1 (stereo partly drawn) [Compound 114, (5S,6R)-5-(4-(2-(3-(fluoromethyl)pyrrolidin-1-yl)ethoxy)phenyl)-6-phenyl-5,6,7,8-tetrahydronaphthalen-2-ol]	0.1 nM	−94.2%	–	–
CS(=O)(=O)c1ccc([C@@H]2CCc3cc(O)ccc3[C@@H]2c2ccc(OCCN3CC(CF)C3)cc2)cc1 [Compound 115, (5S,6R)-5-(4-(2-(3-(fluoromethyl)azetidin-1-yl)ethoxy)phenyl)-6-(4-(methylsulfonyl)phenyl)-5,6,7,8-tetrahydronaphthalen-2-ol]	39.4 nM	−75%	–	–
Oc1ccc2c(c1)CC[C@@H](c1ccccc1)[C@H]2c1ccc(OCCN2CC(C(F)F)C2)cc1 [Compound 116, (5S,6R)-5-(4-(2-(3-(difluoromethyl)azetidin-1-yl)ethoxy)phenyl)-6-phenyl-5,6,7,8-tetrahydronaphthalen-2-ol]	–	–	–	>0.10 µmol
CS(=O)(=O)c1ccc([C@H]2CCc3cc(O)ccc3[C@H]2c2ccc(OCCN3CC(CF)C3)cc2)cc1 [Compound 117, (5R,6S)-5-(4-(2-(3-(fluoromethyl)azetidin-1-yl)ethoxy)phenyl)-6-(4-(methylsulfonyl)phenyl)-5,6,7,8-tetrahydronaphthalen-2-ol]	0.227 nM	−91.4%	–	–
Oc1ccc2c(c1)CC[C@H](c1ccccc1)[C@@H]2c1ccc(OCCN2CC(C(F)F)C2)cc1 [Compound 118, (5R,6S)-5-(4-(2-(3-(difluoromethyl)azetidin-1-yl)ethoxy)phenyl)-6-phenyl-5,6,7,8-tetrahydronaphthalen-2-ol]	0.184 nM	−93.6%	–	–
Oc1ccc2c(c1)CC[C@@H](c1ccccc1)[C@H]2c1ccc(OCCN2CC(CF)C2)cc1F [Compound 119, (5R,6R)-5-(2-fluoro-4-(2-(3-(fluoromethyl)azetidin-1-yl)ethoxy)phenyl)-6-phenyl-5,6,7,8-tetrahydronaphthalen-2-ol]	16.5 nM	−85%	–	–
Oc1ccc2c(c1)CC[C@H](c1ccccc1)[C@@H]2c1ccc(OCCN2CC(CF)C2)cc1F [Compound 120, (5S,6S)-5-(2-fluoro-4-(2-(3-(fluoromethyl)azetidin-1-yl)ethoxy)phenyl)-6-phenyl-5,6,7,8-tetrahydronaphthalen-2-ol]	0.036 nM	−98.8%	–	–
